The text below walks through data of patent US20230348418A1, “ISOINDOLINONE COMPOUNDS” (Monte Rosa Therapeutics, Inc., priority 2021, published 2023).

Test [1] concerns the target T1, GSPT1 (Homo sapiens, UniProt P15170+Q96SW2). Description: relative levels of GSPT1 versus concentration (FIG. 2B). The format is cell-based. Further details: endogenous in cells; host or cells: MM1S (ATCC CRL-2974). To be noted: cell line not named. As for the experimental part: (§1) GSPT1 was degraded by compound 10 after six hours of treatment in high N-Myc NCI-H1155 and ABC-1 cells with a DC50 of 3 nM and 22 nM, respectively (x-axys represents […]M concentration of compound 10; y-axis represents the viability in %).

Test [2] deals with T1, GSPT1. Description: GSPT1 degradation in ABC-1 cells. The format is cell-based. Further details: endogenous in cells. As for the experimental part:
as §1

Test [3] has as its target T2, GSPT1 (Homo sapiens, UniProt P15170).
T2 construct: GSPT1 levels in tumors were determined by western blotting 6 hours after the third dose; from tissue; host or cells: NCI-H1155 (ATCC CRL-5818) xenograft tumours in female BALB/c nude mice
The experiment in a line: GSPT1 degradation in tumors of treated mice (FIG. 3B). The format is in vivo, mouse. To be noted: all three dose levels (1 mg/kg, 3 mg/kg, 6 mg/kg), compared to vehicle control.

T1 sequence (P15170 whole entry): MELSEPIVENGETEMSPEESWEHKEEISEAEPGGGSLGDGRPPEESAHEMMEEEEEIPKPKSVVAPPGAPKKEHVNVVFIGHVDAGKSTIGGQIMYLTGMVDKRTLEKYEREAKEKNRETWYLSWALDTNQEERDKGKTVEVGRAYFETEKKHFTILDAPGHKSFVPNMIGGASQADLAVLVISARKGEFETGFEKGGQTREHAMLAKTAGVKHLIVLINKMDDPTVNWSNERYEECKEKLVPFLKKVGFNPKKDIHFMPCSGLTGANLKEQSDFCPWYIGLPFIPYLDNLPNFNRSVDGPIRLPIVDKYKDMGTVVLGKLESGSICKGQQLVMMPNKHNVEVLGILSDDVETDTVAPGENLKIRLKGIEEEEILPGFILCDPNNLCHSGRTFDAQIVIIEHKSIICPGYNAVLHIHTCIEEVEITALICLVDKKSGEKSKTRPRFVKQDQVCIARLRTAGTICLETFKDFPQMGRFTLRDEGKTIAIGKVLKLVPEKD
T1 sequence (Q96SW2 whole entry): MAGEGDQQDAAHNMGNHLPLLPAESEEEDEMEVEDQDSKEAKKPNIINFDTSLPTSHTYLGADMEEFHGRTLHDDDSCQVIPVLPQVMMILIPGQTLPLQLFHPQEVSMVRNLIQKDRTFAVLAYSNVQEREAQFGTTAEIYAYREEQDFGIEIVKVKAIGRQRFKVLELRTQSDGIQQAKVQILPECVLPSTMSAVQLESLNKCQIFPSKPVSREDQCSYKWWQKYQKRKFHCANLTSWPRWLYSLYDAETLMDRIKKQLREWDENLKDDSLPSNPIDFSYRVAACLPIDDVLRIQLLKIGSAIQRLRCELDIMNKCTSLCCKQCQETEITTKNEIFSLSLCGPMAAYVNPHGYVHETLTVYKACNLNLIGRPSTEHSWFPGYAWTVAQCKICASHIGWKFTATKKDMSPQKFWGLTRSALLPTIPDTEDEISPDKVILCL
T1 sequence (Q16531 2-1140 partner limits assumed): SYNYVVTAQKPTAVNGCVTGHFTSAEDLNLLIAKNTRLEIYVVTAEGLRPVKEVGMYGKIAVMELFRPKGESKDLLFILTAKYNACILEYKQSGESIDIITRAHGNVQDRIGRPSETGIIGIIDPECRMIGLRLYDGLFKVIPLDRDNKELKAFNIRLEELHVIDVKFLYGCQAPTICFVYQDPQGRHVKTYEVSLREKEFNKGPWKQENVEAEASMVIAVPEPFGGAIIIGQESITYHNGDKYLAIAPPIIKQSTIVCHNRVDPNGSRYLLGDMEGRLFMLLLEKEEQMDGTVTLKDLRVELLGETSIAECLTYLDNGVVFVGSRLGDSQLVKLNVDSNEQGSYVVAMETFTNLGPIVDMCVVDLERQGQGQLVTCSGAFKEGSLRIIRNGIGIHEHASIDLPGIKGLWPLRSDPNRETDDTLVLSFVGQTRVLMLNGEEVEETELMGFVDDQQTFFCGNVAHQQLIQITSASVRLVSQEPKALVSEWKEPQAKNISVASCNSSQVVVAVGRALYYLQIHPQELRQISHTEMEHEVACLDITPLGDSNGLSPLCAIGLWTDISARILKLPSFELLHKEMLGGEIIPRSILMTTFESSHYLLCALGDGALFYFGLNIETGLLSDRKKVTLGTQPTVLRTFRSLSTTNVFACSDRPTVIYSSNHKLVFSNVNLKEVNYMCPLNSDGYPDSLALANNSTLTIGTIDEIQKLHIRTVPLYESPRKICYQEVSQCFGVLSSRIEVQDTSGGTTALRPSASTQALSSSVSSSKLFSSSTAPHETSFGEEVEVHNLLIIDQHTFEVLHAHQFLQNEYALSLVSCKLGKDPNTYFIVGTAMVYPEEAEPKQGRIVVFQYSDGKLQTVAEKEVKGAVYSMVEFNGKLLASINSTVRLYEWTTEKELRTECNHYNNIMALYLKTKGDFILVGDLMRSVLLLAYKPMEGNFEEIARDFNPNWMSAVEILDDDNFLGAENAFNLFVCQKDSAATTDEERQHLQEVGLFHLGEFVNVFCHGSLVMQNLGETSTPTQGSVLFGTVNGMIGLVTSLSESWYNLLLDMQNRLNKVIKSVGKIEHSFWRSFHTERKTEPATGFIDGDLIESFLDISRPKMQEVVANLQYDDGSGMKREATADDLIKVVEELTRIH
T2 sequence (P15170 whole entry): as the sequence (P15170 whole entry) above
T2 sequence (Q96SW2 whole entry, further chain): as the sequence (Q96SW2 whole entry) above
T2 sequence (Q16531 2-1140 partner limits assumed): as the sequence (Q16531 2-1140 partner limits assumed) above

On to `Cc1ccc(NC(=O)OCc2ccc3c(c2)C(=O)N(C2CCC(=O)NC2=O)C3)cc1Cl` (stereo not drawn) [Compound 10], for which the “GSPT1 degradation versus concentration” value on GSPT1 [1] is “concentration dependent manner”. For the same compound, the “extent of GSPT1 degradation” value at GSPT1 [2] is “complete degradation”. On GSPT1 [3], the “degradation of GSPT1 in tumors” value is “complete degradation”.
